Reference: patent US3970642A, “Process for the conversion of niddamycin to leucomycin A1, leucomycin A3, carbomycin B and other antibiotics and related 3-O-esters” (Abbott Laboratories, priority 1974, dated 1976)
Converted amounts (≈) assume the structure as drawn.

Experiments:
Format in all cases: cell-based
Mycoplasma pneumoniae FH = test: Standard two-fold tube dilution test, activity against Mycoplasma pneumoniae FH; settings: 144 h, PPLO broth, six days at 37°C, read-out: Minimum Inhibitory Concentration
Experimental: (§1) Three nid damycin and two dihydroniddamycin compounds were tested for their activity against Streptococcus pyogenes C203, and Diplococcus pneumoniae 6301 and Mycoplasma pneumoniae FH.
(§2) A standard two-fold tube dilution test was used. The medium inoculum were varied with each culture.
In the test for activity against Mycoplasma pneumoniae FH, 4.5 ml. portions of PPLO broth were used with 0.5 ml. of 1:100 dilution culture. The test was incubated for six days at 37°C.

[1] = system: Streptococcus pyogenes C203; test: Standard two-fold tube dilution test, activity against Streptococcus pyogenes C203; settings: brain-heart infusion broth, 24 hours at 37°C, read-out: Minimum Inhibitory Concentration
Experimental: as §1, §2
In the test for activity against Streptococcus pyogenes C203, 5 ml. portions of brain-heart infusion broth were used with 0.1 ml. of 1:100 dilution culture. The test was incubated for 24 hours at 37°C.

[2] = system: Diplococcus pneumoniae 6301; test: Standard two-fold tube dilution test, activity against Diplococcus pneumoniae 6301; settings: Streptococcus pneumoniae, brain-heart infusion broth and 20% horse serum, 24 hours at 37°C, read-out: Minimum Inhibitory Concentration
Experimental: as §1, §2
In the test for activity against Diplococcus pneumoniae 6301, 5 ml. portions of brain-heart infusion broth and 20% horse serum were used with 0.1 ml. of 1:100 dilution culture. The test was incubated for 24 hours at 37°C.

Row | SMILES | MIC (Mycoplasma pneumoniae FH) [µg/mL] | MIC [1] [µg/mL] | MIC [2] [µg/mL]
1 | COC(CC1CC(C)C(=O)C=CC=CCC(C)OC(=O)CC(OC(C)=O)C(OC)C1OC1OC(C)C(OC2CC(C)(O)C(OC(=O)CC(C)C)C(C)O2)C(N(C)C)C1O)OC (stereo not drawn) [Compound 6B, 3-(O)-Acetylniddamycin dimethyl acetal] | 25 (≈ 28.7 µM) | 12.5 (≈ 14.3 µM) | –
2 | COC(CC1CC(C)C(O)C=CC=CCC(C)OC(=O)CC(OC(C)=O)C(OC)C1OC1OC(C)C(OC2CC(C)(O)C(OC(=O)CC(C)C)C(C)O2)C(N(C)C)C1O)OC (stereo not drawn) [Compound 8B, 3-(O)-Acetyl-9-dihydroniddamycin B dimethyl acetal] | 50 (≈ 57.2 µM) | 25 (≈ 28.6 µM) | –

Second part, the compound after the results:

Row | MIC (Mycoplasma pneumoniae FH) [µg/mL] | MIC [1] [µg/mL] | MIC [2] [µg/mL] | SMILES
3 | 25 (≈ 30.1 µM) | 0.78 (≈ 0.94 µM) | < 1.56 | COC(CC1CC(C)C(=O)C=CC=CCC(C)OC(=O)CC(O)C(OC)C1OC1OC(C)C(OC2CC(C)(O)C(OC(=O)CC(C)C)C(C)O2)C(N(C)C)C1O)OC (stereo not drawn) [Compound 2, Niddamycin dimethyl acetal]
4 | > 100 | > 100 | > 100 | COC(CC1CC(C)C(=O)C=CC=CCC(C)OC(=O)CC(OC(C)=O)C(OC)C1OC1OC(C)C(OC2CC(C)(O)C(OC(=O)CC(C)C)C(C)O2)C(N(C)C)C1OC(C)=O)OC (stereo not drawn) [Compound 3B, 2',3-Di-(O)-acetylniddamycin dimethyl acetal]
5 | 50 (≈ 60.1 µM) | 6.2 (≈ 7.45 µM) | – | COC(CC1CC(C)C(O)C=CC=CCC(C)OC(=O)CC(O)C(OC)C1OC1OC(C)C(OC2CC(C)(O)C(OC(=O)CC(C)C)C(C)O2)C(N(C)C)C1O)OC (stereo not drawn) [Compound 4, 9-Dihydroniddamycin B dimethyl acetal]
